Measurements from US20250275540A1, “USE OF PROTOPORPHYRINOGEN OXIDASE” (BEIJING DABEINONG BIOTECHNOLOGY CO., LTD., priority 2022, published 2025).

Tested on: transgenic Arabidopsis thaliana T1 plants
Test: Detection of the herbicide tolerance of the transgenic Arabidopsis thaliana plants
Type: in vivo
Details: for The grade of pesticide damage/plant: 0 / The grade of pesticide damage/plant: 1 / The grade of pesticide damage/plant: 2 / The grade of pesticide damage/plant: 3: 7 DAT
Excerpt: The transformed Arabidopsis thaliana T1 plants were initially selected using glufosinate herbicide. The Arabidopsis thaliana T1 plants (PPOA-01) into which the PPOA-01 nucleotide sequence was introduced, the Arabidopsis thaliana T1 plants (PPOB-01) into which the PPOB-01 nucleotide sequence was introduced, the Arabidopsis thaliana T1 plants (PPOC-01) into which the PPOC-01 nucleotide sequence was introduced, the Arabidopsis thaliana T1 plants (PPOD-01) into which the PPOD-01 nucleotide sequence was introduced, the Arabidopsis thaliana T1 plants (PPOE-01) into which the PPOE-01 nucleotide sequence was introduced, the Arabidopsis thaliana T1 plants (PPOF-01) into which the PPOF-01 nucleotide sequence was introduced, the Arabidopsis thaliana T1 plants (PPO-AP-01) into which the PPO-AP-01 nucleotide sequence was introduced, and the Arabidopsis thaliana T1 plants (control vector) into which the control vector was introduced, the wild-type Arabidopsis thaliana plants (CK) (with 24 plants being included in each genotype) (18 days after sowing) were sprayed with saflufenacil at three concentrations (25 g ai/ha (one-fold field concentration, 1×), 100 g ai/ha (four-fold field concentration, 4×), and 0 g ai/ha (water, 0×)), oxyfluorfen at three concentrations (180 g ai/ha (one-fold field concentration, 1×), 720 g ai/ha (four-fold field concentration, 4×), and 0 g ai/ha (water, 0×)), and flumioxazin at three concentrations (60 g ai/ha (one-fold field concentration, 1×), 240 g ai/ha (four-fold field concentration, 4×), and 0 g ai/ha (water, 0×) to determine the tolerance of Arabidopsis thaliana to the herbicides. After 7 days of spraying (7 DAT), the damage level of each plant caused by the herbicide was evaluated according to the average of the damage levels (%) of plants (the average of the damage levels (%) of plants=the injured leaf area/the total leaf area×100%), i.e., the grade of pesticide damage: grade 0 means that the growth status of plants is essentially consistent with those sprayed with the blank solvent (water); grade 1 means that the average of the damage levels of plants is less than 10%; grade 2 means that the average of the damage levels of plants is greater than 10%; and grade 3 means that the average of the damage levels of plants is 100%. The plants having a growth status falling within grades 0 and 1 are classified as highly resistant plants; those having a growth status falling within grade 2 are classified as poorly resistant plants; and those having a growth status falling within grade 3 are classified as non-resistant plants.

[1] = genotype Control vector, 180 g ai/ha
[2] = genotype Control vector, 720 g ai/ha
[3] = genotype PPO-AP-01, 180 g ai/ha
[4] = genotype PPO-AP-01, 720 g ai/ha

CCOc1cc(Oc2ccc(C(F)(F)F)cc2Cl)ccc1[N+](=O)[O-] [oxyfluorfen, 2-chloro-1-(3-ethoxy-4-nitrophenoxy)-4-trifluoromethylbenzene]
22 plant: The grade of pesticide damage/plant: 0 (genotype PPOE-01, 180 g ai/ha)
24 plant: The grade of pesticide damage/plant: 3 (genotype CK, 180 g ai/ha) | The grade of pesticide damage/plant: 3 (genotype CK, 720 g ai/ha) | The grade of pesticide damage/plant: 3 [1] | The grade of pesticide damage/plant: 3 [2] | The grade of pesticide damage/plant: 3 [3] | The grade of pesticide damage/plant: 3 [4] | The grade of pesticide damage/plant: 0 (genotype PPOA-01, 180 g ai/ha) | The grade of pesticide damage/plant: 0 (genotype PPOA-01, 720 g ai/ha) | The grade of pesticide damage/plant: 0 (genotype PPOB-01, 180 g ai/ha) | The grade of pesticide damage/plant: 0 (genotype PPOB-01, 720 g ai/ha) | The grade of pesticide damage/plant: 0 (genotype PPOC-01, 180 g ai/ha) | The grade of pesticide damage/plant: 0 (genotype PPOC-01, 720 g ai/ha) | The grade of pesticide damage/plant: 0 (genotype PPOD-01, 180 g ai/ha) | The grade of pesticide damage/plant: 0 (genotype PPOD-01, 720 g ai/ha) | The grade of pesticide damage/plant: 0 (genotype PPOF-01, 180 g ai/ha) | The grade of pesticide damage/plant: 0 (genotype PPOF-01, 720 g ai/ha)
15 plant: The grade of pesticide damage/plant: 0 (genotype PPOE-01, 720 g ai/ha)
high-resistant tolerance: tolerance to the herbicide (in words) (genotypes PPOA-01 to PPOF-01, at different concentrations, compared with the control vector and CK)
2 plant: The grade of pesticide damage/plant: 1 (genotype PPOE-01, 180 g ai/ha)
0 plant: The grade of pesticide damage/plant: 0 (genotype CK, 180 g ai/ha) | The grade of pesticide damage/plant: 1 (genotype CK, 180 g ai/ha) | The grade of pesticide damage/plant: 2 (genotype CK, 180 g ai/ha) | The grade of pesticide damage/plant: 0 (genotype CK, 720 g ai/ha) | The grade of pesticide damage/plant: 1 (genotype CK, 720 g ai/ha) | The grade of pesticide damage/plant: 2 (genotype CK, 720 g ai/ha) | The grade of pesticide damage/plant: 0 [1] | The grade of pesticide damage/plant: 1 [1] | The grade of pesticide damage/plant: 2 [1] | The grade of pesticide damage/plant: 0 [2] | The grade of pesticide damage/plant: 1 [2] | The grade of pesticide damage/plant: 2 [2] | The grade of pesticide damage/plant: 0 [3] | The grade of pesticide damage/plant: 1 [3] | The grade of pesticide damage/plant: 2 [3] | The grade of pesticide damage/plant: 0 [4] | The grade of pesticide damage/plant: 1 [4] | The grade of pesticide damage/plant: 2 [4] | The grade of pesticide damage/plant: 1 (genotype PPOA-01, 180 g ai/ha) | The grade of pesticide damage/plant: 2 (genotype PPOA-01, 180 g ai/ha) | The grade of pesticide damage/plant: 3 (genotype PPOA-01, 180 g ai/ha) | The grade of pesticide damage/plant: 1 (genotype PPOA-01, 720 g ai/ha) | The grade of pesticide damage/plant: 2 (genotype PPOA-01, 720 g ai/ha) | The grade of pesticide damage/plant: 3 (genotype PPOA-01, 720 g ai/ha) | The grade of pesticide damage/plant: 1 (genotype PPOB-01, 180 g ai/ha) | The grade of pesticide damage/plant: 2 (genotype PPOB-01, 180 g ai/ha) | The grade of pesticide damage/plant: 3 (genotype PPOB-01, 180 g ai/ha) | The grade of pesticide damage/plant: 1 (genotype PPOB-01, 720 g ai/ha) | The grade of pesticide damage/plant: 2 (genotype PPOB-01, 720 g ai/ha) | The grade of pesticide damage/plant: 3 (genotype PPOB-01, 720 g ai/ha) | The grade of pesticide damage/plant: 1 (genotype PPOC-01, 180 g ai/ha) | The grade of pesticide damage/plant: 2 (genotype PPOC-01, 180 g ai/ha) | The grade of pesticide damage/plant: 3 (genotype PPOC-01, 180 g ai/ha) | The grade of pesticide damage/plant: 1 (genotype PPOC-01, 720 g ai/ha) | The grade of pesticide damage/plant: 2 (genotype PPOC-01, 720 g ai/ha) | The grade of pesticide damage/plant: 3 (genotype PPOC-01, 720 g ai/ha) | The grade of pesticide damage/plant: 1 (genotype PPOD-01, 180 g ai/ha) | The grade of pesticide damage/plant: 2 (genotype PPOD-01, 180 g ai/ha) | The grade of pesticide damage/plant: 3 (genotype PPOD-01, 180 g ai/ha) | The grade of pesticide damage/plant: 1 (genotype PPOD-01, 720 g ai/ha) | The grade of pesticide damage/plant: 2 (genotype PPOD-01, 720 g ai/ha) | The grade of pesticide damage/plant: 3 (genotype PPOD-01, 720 g ai/ha) | The grade of pesticide damage/plant: 2 (genotype PPOE-01, 180 g ai/ha) | The grade of pesticide damage/plant: 3 (genotype PPOE-01, 180 g ai/ha) | The grade of pesticide damage/plant: 2 (genotype PPOE-01, 720 g ai/ha) | The grade of pesticide damage/plant: 3 (genotype PPOE-01, 720 g ai/ha) | The grade of pesticide damage/plant: 1 (genotype PPOF-01, 180 g ai/ha) | The grade of pesticide damage/plant: 2 (genotype PPOF-01, 180 g ai/ha) | The grade of pesticide damage/plant: 3 (genotype PPOF-01, 180 g ai/ha) | The grade of pesticide damage/plant: 1 (genotype PPOF-01, 720 g ai/ha) | The grade of pesticide damage/plant: 2 (genotype PPOF-01, 720 g ai/ha) | The grade of pesticide damage/plant: 3 (genotype PPOF-01, 720 g ai/ha)
9 plant: The grade of pesticide damage/plant: 1 (genotype PPOE-01, 720 g ai/ha)
180 g ai/ha: effective dose distinguishing sensitive plants from plants having an average level of resistance (Arabidopsis thaliana)
no tolerance: tolerance to the herbicide (in words) (genotype PPO-AP-01, at different concentrations)
